# Assay results reported in patent US20090118331A1, “Use of Lobeline Epimers in the Treatment of Central Nervous System Diseases, Pathologies, and Drug Abuse” (priority 2007, published 2009).
# Legend:
# in vivo = details: for AUC(0-inf) / AUC(0-t) / Cmax / MRT last / Tmax / Vd / clearance / half-life: rat, in vivo
# Method: Here, serial doses of lobeline were administered to male and female rats intravenously, subcutaneously or orally, and the pharmacokinetic profiles of the parent lobeline and its epimer were monitored in plasma.
# [1] = Lobeline conversion to epimer in the HEPES buffer system used at 25° C. in the [^3H]DTBZ binding study (HPLC); assay type: physicochemical; details: for Lobeline %: [^3H]DTBZ binding buffer, 25° C.
# Method: The initial dissolution of lobeline in water was followed by a 1:1 dilution of this stock solution in the appropriate HEPES buffer system, incubation at the prescribed temperature, and HPLC assay of each epimer and potential degradants over 2 hour incubation.
# After 2 hours, the 25° C.
smiles,measurement,setting,value
"CN1[C@@H](CC(=O)c2ccccc2)CCC[C@H]1C[C@H](O)c1ccccc1 [Lobeline, 2-[6S-(2S-hydroxy-2-phenyl-ethyl)-1-methyl-piperidin-2R-yl]-1-phenyl-ethanone]",AUC(0-inf),"in vivo; female, iv, 2 mg/kg",134 ng·h/mL
same,AUC(0-t),"in vivo; female, iv, 2 mg/kg",133 ng·h/mL
same,Cmax,"in vivo; female, iv, 2 mg/kg",106 ng/mL
same,MRT last,"in vivo; female, iv, 2 mg/kg",1.72 h
same,Tmax,"in vivo; female, iv, 2 mg/kg",0.083 h
same,Vd,"in vivo; female, iv, 2 mg/kg",27.2 L/kg
same,clearance,"in vivo; female, iv, 2 mg/kg",0.248 mL/min/kg
same,half-life,"in vivo; female, iv, 2 mg/kg",1.85 h
same,AUC(0-inf),"in vivo; female, po, 20 mg/kg",64.5 ng·h/mL
same,AUC(0-t),"in vivo; female, po, 20 mg/kg",62.7 ng·h/mL
same,Cmax,"in vivo; female, po, 20 mg/kg",42.5 ng/mL
same,MRT last,"in vivo; female, po, 20 mg/kg",1.92 h
same,Tmax,"in vivo; female, po, 20 mg/kg",0.5 h
same,half-life,"in vivo; female, po, 20 mg/kg",2.29 h
same,AUC(0-inf),"in vivo; female, sc, 3 mg/kg",193 ng·h/mL
same,AUC(0-t),"in vivo; female, sc, 3 mg/kg",191 ng·h/mL
same,Cmax,"in vivo; female, sc, 3 mg/kg",142 ng/mL
same,MRT last,"in vivo; female, sc, 3 mg/kg",1.42 h
same,Tmax,"in vivo; female, sc, 3 mg/kg",0.25 h
same,half-life,"in vivo; female, sc, 3 mg/kg",1.14 h
same,AUC(0-inf),"in vivo; male, iv, 2 mg/kg",135 ng·h/mL
same,AUC(0-t),"in vivo; male, iv, 2 mg/kg",134 ng·h/mL
same,Cmax,"in vivo; male, iv, 2 mg/kg",144 ng/mL
same,MRT last,"in vivo; male, iv, 2 mg/kg",1.54 h
same,Tmax,"in vivo; male, iv, 2 mg/kg",0.083 h
same,Vd,"in vivo; male, iv, 2 mg/kg",23.8 L/kg
same,clearance,"in vivo; male, iv, 2 mg/kg",0.247 mL/min/kg
same,half-life,"in vivo; male, iv, 2 mg/kg",1.68 h
same,AUC(0-inf),"in vivo; male, po, 20 mg/kg",105 ng·h/mL
same,AUC(0-t),"in vivo; male, po, 20 mg/kg",104 ng·h/mL
same,Cmax,"in vivo; male, po, 20 mg/kg",91.2 ng/mL
same,MRT last,"in vivo; male, po, 20 mg/kg",1.88 h
same,Tmax,"in vivo; male, po, 20 mg/kg",0.5 h
same,half-life,"in vivo; male, po, 20 mg/kg",1.97 h
same,AUC(0-inf),"in vivo; male, sc, 3 mg/kg",191 ng·h/mL
same,AUC(0-t),"in vivo; male, sc, 3 mg/kg",190 ng·h/mL
same,Cmax,"in vivo; male, sc, 3 mg/kg",162 ng/mL
same,MRT last,"in vivo; male, sc, 3 mg/kg",1.35 h
same,Tmax,"in vivo; male, sc, 3 mg/kg",0.083 h
same,half-life,"in vivo; male, sc, 3 mg/kg",1.18 h
same,ratio of lobeline to epimer in plasma (comparison of AUC; x to 1),"in vivo; rats, depending on sex and route of administration",1.5-2
same,"systemic absorption of lobeline, followed by subsequent epimerization, when given orally","in vivo; rats, females compared to males",significantly reduced in females as compared to males
same,final component concentration (as a function of the area under the curve),"[1]; HEPES [^3H]DTBZ binding buffer, after 2 hours at 25° C.",83%
same,Lobeline %,"[1]; T0, sample age 0:01",98.5%
same,Lobeline %,"[1]; T5, sample age 0:06",97.8%
same,Lobeline %,"[1]; T10, sample age 0:10",96.7%
same,Lobeline %,"[1]; T15, sample age 0:15",95.5%
same,Lobeline %,"[1]; T20, sample age 0:20",94.7%
same,Lobeline %,"[1]; T25, sample age 0:25",94.1%
same,Lobeline %,"[1]; T30, sample age 0:31",92.8%
same,Lobeline %,"[1]; T35, sample age 0:35",92.7%
same,Lobeline %,"[1]; T40, sample age 0:40",91.3%
same,Lobeline %,"[1]; T45, sample age 0:45",90.7%
same,Lobeline %,"[1]; T50, sample age 0:50",90.1%
same,Lobeline %,"[1]; T55, sample age 0:55",89.9%
same,Lobeline %,"[1]; T60, sample age 1:00",89.1%
same,Lobeline %,"[1]; T70, sample age 1:10",87.8%
same,Lobeline %,"[1]; T80, sample age 1:20",86.6%
same,Lobeline %,"[1]; T90, sample age 1:31",85.5%
same,Lobeline %,"[1]; T100, sample age 1:40",84.5%
same,Lobeline %,"[1]; T110, sample age 1:50",83.5%
same,Lobeline %,"[1]; T120, sample age 2:01",82.7%
